Legend:
[1] = test system: Flt3L-elicited DC; test: Foxp3 induction by DC pre-treated with SCFA or TSA for 6 h, washed, co-cultured with naïve CD4+ T cells; assay type: cell-based, mouse; conditions: DC pre-treated 6 h, then agent removed
Method: DC were expanded in vivo by subcutaneous injection of B16 melanoma cells secreting FLT3-ligand into the left hind flank of mice as indicated. Once tumors were visible, spleens from injected animals were dissociated in RPMI 1640 medium containing 1.67 U mL-1 liberase TL (Roche) and 50 μg mL-1 DNAse I (Roche) for 20 min at 37° C. with shaking EDTA was then added at a final concentration of 5 mM to stop digestion and the resulting homogenate was processed for CD11c+ cell isolation using the MACS mouse CD11c (N418) purification kit (Miltenyi Biotec).
In vitro Foxp3 induction assays were performed by co-culturing DC with 5.5×10^4 CD4+CD44loCD62LhiCD25-naïve T cells in the presence of 1 μg ml-1 of CD3 antibody, 1 ng mL-1 TGF-β, and 100 U ml-1 IL-2, in 96-well flat-bottom plates for 4 d. For Foxp3 induction in the presence of butyrate- or TSA-pretreated DC, TGF-β was used at 0.1 ng mL-1 final concentration. In vitro induction assays in the absence of DC were performed by incubating 5.5×10^4 naïve CD4+ T cells with 1 ng mL-1 TGF-β, 100 U ml-1 IL-2, and a 1:1 cell-to-bead ratio of CD3/CD28 T activator Dynabeads (Invitrogen). For in vitro suppression assays, 4×10^4 naïve CD4+ T cells were FACS-sorted from B6 mice and cultured with graded numbers of CD4+Foxp3+ Treg cells FACS-sorted from Foxp3GFP mice treated with antibiotics and with or without butyrate, in the presence of […] irradiated T cell-depleted splenocytes and 1 μg ml-1 CD3 antibody in a 96-well round-bottom plate for 80 h. Proliferation of T cells was assessed by [3H]-thymidine incorporation during the final 8 h of culture.

[2] = test system: LPS response genes; test: Gene expression in DC (microarray, Relb qPCR); assay type: cell-based, mouse; conditions: 6 h
Method: FIG. 4 depicts HDAC-inhibitory activity of butyrate decreases pro-inflammatory cytokine expression within DC to promote Treg induction: A) Histone acetylation in Flt3L-elicited DC from B6 mice treated with the indicated SCFA (500 μM) or TSA (10 nM) for 6 h followed by acid extraction of histones from isolated nuclei, SDS-PAGE and blotting with antibody for pan-acetylated H3. Total histone H3 served as a loading control; B) Induction of Foxp3 expression upon stimulation of naïve CD4+ T cells by CD3 antibody in the presence of SCFA or TSA, Flt3L-elicited DC and TGF-β; C) RelB gene expression quantified by qPCR in purified Flt3L-elicited DC from B6 mice treated for 6 h with SCFA or TSA, as in (A); and D) RelB gene expression quantified by qPCR in purified Flt3L-elicited DC from B6 mice treated with or without TSA in combination with, or in the absence of, butyrate at the indicated concentrations.
The data are shown as percent of CD4+ cells expressing Foxp3 after 4 days of culture. Data are representative of 2 independent experiments; error bars denote SEM.

[3] = test system: dendritic cells; test: Treg induction by dendritic cells treated with soluble or liposome encapsulated TSA; assay type: cell-based; conditions: DC treated 6 hrs with soluble or liposome encapsulated TSA, washed, incubated with naïve CD4+ T cells
Text: TSA was encapsulated in lipid particles containing mixtures of lipids for release of contents only upon entry into cells. For details see Karve et al. Langmuir 2008, 24, 5679-5688. To monitor incorporation of TSA into liposomes, lipids were dissociated with hydrogenated Triton-X and monitored for increased UV absorption compared to free TSA and ‘empty’ liposomes. >85% of free TSA is incorporated into the lipid particles.
The ability of dendritic cells to induce Treg development in vitro after exposure to lipopsome encapsulated TSA was evaluated. Doubly bead-purified dendritic cells were treated for 6 hrs with soluble or liposome encapsulated TSA then washed and incubated with naïve CD4+ T cells. Pretreatment of DCs with TSA increased the generation of Foxp3+ cells relative to vehicle control (FIG. 11).

[4] = test system: T cells; conditions: Wang et al. 2009; Tao et al. 2007; cited from earlier work

CC(/C=C/C(=O)NO)=C\[C@@H](C)C(=O)c1ccc(N(C)C)cc1 [TSA, trichostatin A]
ability of pre-treated DCs to induce Foxp3 expression in naïve CD4+ T cells [1]: potently induced | expression of LPS response genes including 1112, 116, and Relb in DCs [2]: systemic repression | generation of Foxp3+ cells relative to vehicle control [3]: increased | Treg cell generation in vitro by acting on T cells [4]: potentiates

Source: patent US20160271086A1, “METHODS AND COMPOSITIONS FOR INDUCING REGULATORY T-CELL GENERATION” (SLOAN-KETTERING INSTITUTE FOR CANCER RESEARCH, priority 2013, published 2016)
